Patent US11793741B2, “Topical composition” (Conopco, Inc., priority 2017, dated 2023)

Tested on: psoriasin
Assay: Generation of psoriasin (AMP marker) by human keratinocytes, ELISA of cell culture supernatant
Format: cell-based
Settings: NHEK cells, 72 hours; for Fold change in psoriasin levels over control: control (Example A) = 1
Procedure: The experiment was done with the above-mentioned cells with passage between 3 and 4. The cells were seeded (35,000 cells/well) in 24 well plate with keratinocyte growth media (KGM) obtained from Invitrogen®. The plate was then incubated at 37±2° C. in a CO2 incubator for 48 hours. Step 2: After 48 hours of incubation, cell differentiation was induced by replacing media with fresh KGM supplemented with 2 mM calcium chloride solution. This was then followed by incubation at 37±2° C. in a CO2 incubator for 48 hours. Step 3: After that, the cells were treated with niacinamide and the compound of formula I, i.e. N-cyclopropyl nicotinamide, in varying concentration as outlined in table 1 below with keratinocyte growth media supplemented with 2 mM calcium chloride solution. Step 4: After the above treatment, cells were again incubated at 37±2° C. in a CO2 incubator for 72 hours. Step 5: After 72 hours of incubation, cell culture supernatant from each well was collected in a sterile tube. The samples were then stored at −80° C. until used for testing psoriasin secretion by standard ELISA technique using psoriasin ELISA kit obtained from Circulx® (No: CY-8073). In the current experiment, psoriasin was used as a marker for AMP. Step 6: The ELISA method was performed by using 100 μL of cell culture supernatant from each sample. The data is expressed in terms of fold change over control (no treatment: Example A). The fold change in psoriasin levels in case of control (example A) is taken to be equal to 1 fold. Any fold change in psoriasin obtained due to treatments outlined in all the other examples was over and above the 1 fold change obtained from the control.

| Compound | Fold change in psoriasin over and above 1 fold of the control (100 μg/mL active) | Fold change in psoriasin levels over control (100 μg/mL active) | Fold change in psoriasin levels over control (250 μg/mL active) | Fold change in psoriasin levels over control (500 μg/mL active) |
| --- | --- | --- | --- | --- |
| NC(=O)c1cccnc1 [Example B, Niacinamide] | 0.26 fold | 1.26 fold | 1.50 fold | 1.44 fold |
| O=C(NC1CC1)c1cccnc1 [Example 1, N-cyclopropyl nicotinamide] | – | 1.61 fold | 1.88 fold | 2.16 fold |
